# In patent US20030212102A1, “Novel solid dispersion compositions” (priority 2002, published 2003):
# Experiment: Solubility and dissolution in simulated gastric fluid, USP Apparatus 2, non-sink conditions
# Type: physicochemical
# Details: simulated gastric fluid without enzymes, 37 °C, thermodynamic from solid; simulated gastric fluid without enzyme, pH 1.2; read-out: in vitro solubility
# Procedure: Physical matrix mixtures and melted carriers were made and tested to compare the baseline solubility and background absorbance to that of the solid dispersions. The resultant solid dispersion were yellow-orange hard solids with some air pockets formed by the cooling process. The dispersion solubility and dissolution rate were analyzed by USP Apparatus 2 dissolution. The dissolution was performed under the following conditions: SGF dissolution media, 0.1 M HCL without enzymes pH 1.2; non-sink conditions of 350-370 mL media; paddle speed of 50 rpm; temperature of 37° C.; 10 mL sample pull not replaced. Analysis of the (S)-(−)-N-(α-Ethylbenzyl)-3-hydroxy-2-phenylquinoline-4-carboxamide was performed using a UV spectrophotometer at 359 nm compared to standard solutions.
smiles,measurement,value
CC[C@H](NC(=O)c1c(O)c(-c2ccccc2)nc2ccccc12)c1ccccc1 [(S)-(−)-N-(α-Ethylbenzyl)-3-hydroxy-2-phenylquinoline-4-carboxamide],solubility,31 µg/mL
